The assay addresses Recombinant human Cbl-b (aa 36-427) (Homo sapiens (Human), UniProt Q13191). The experiment in a line: Cbl-b Biochemical Assay (TR-FRET). The settings on record: read-out: TR-FRET hCbl-b IC50. In a few lines: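 Two-step TR-FRET: 6 nM biotinylated Cbl-b preincubated 30-60 min with compound, then 60 min at RT with 1-2.5 nM Src-Zap70 and 0.5 mM ATP in HEPES pH 7.0 buffer, 1% DMSO. Stopped with 5 mM EDTA plus 100 nM UBE2D2-Ub-FL-BODIPY and 1 nM streptavidin-Tb, 60 min; 520 nm signal; IC50 from 4-parameter fit.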
Background: Time-resolved FRET reads energy transfer from a long-lived donor to a nearby acceptor.

By IC50 is commonly meant the point on the concentration scale where inhibition reaches its midpoint.

Structures are written as SMILES.

Recombinant human Cbl-b (aa 36-427), sequence (Q13191 36-427): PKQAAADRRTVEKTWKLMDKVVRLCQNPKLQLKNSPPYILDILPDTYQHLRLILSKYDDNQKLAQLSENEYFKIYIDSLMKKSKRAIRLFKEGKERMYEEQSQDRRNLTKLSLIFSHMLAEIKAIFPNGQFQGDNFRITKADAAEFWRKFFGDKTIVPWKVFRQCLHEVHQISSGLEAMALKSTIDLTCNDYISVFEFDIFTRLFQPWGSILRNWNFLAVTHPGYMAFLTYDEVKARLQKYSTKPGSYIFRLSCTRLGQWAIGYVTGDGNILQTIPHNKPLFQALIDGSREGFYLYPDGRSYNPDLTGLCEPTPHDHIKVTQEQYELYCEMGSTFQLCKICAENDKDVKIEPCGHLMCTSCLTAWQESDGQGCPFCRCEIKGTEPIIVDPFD

`CCNc1cc(-c2c(-c3nncn3C)cnn2C)cc(N2Cc3c(cc(CN4CCC[C@@H](C)C4)cc3C(F)(F)F)C2=O)n1` [ACE-1, (R)-2-(6-(Ethylamino)-4-(1-methyl-4-(4-methyl-4H-1,2,4-triazol-3-yl)-1H-pyrazol-5-yl)pyridin-2-yl)-6-((3-methylpiperidin-1-yl)methyl)-4-(trifluoromethyl) isoindolin-1-one]: the IC50 was at most 0.2 µM.

As to `Cn1cnnc1-c1cnn(C)c1-c1cccc(N2Cc3c(cc(CN4CCC5(CC5)C4)cc3C(F)(F)F)C2=O)c1` [AAD-1, 6-((5-Azaspiro [2.4]heptan-5-yl)methyl)-2-(3-(1-methyl-4-(4-methyl-4H-1,2,4-triazol-3-yl)-1H-pyrazol-5-yl)phenyl)-4-(trifluoromethyl)isoindolin-1-one], the IC50 is at most 0.2 µM.

Regarding `C[C@H]1CN(Cc2cc3c(c(C(F)(F)F)c2)CN(c2cccc(-c4ccccc4-c4nncn4C)c2)C3=O)CCO1` [AB-2, (S)-2-(2′-(4-Methyl-4H-1,2,4-triazol-3-yl)-[1,1′-biphenyl]-3-yl)-6-((2-methylmorpholino)methyl)-4-(trifluoromethyl)isoindolin-1-one], the IC50 is at most 0.2 µM.

In the case of `CCNc1cc(-c2c(-c3nncn3C)cnn2C)cc(NC(=O)c2cc(CO)cc(C3CC3)n2)n1` [ABZ-7, 6-Cyclopropyl-N-(6-(ethylamino)-4-(1-methyl-4-(4-methyl-4H-1,2,4-triazol-3-yl)-1H-pyrazol-5-yl)pyridin-2-yl)-4-(hydroxymethyl) picolinamide], the IC50 is at most 0.2 µM.

For the compound `Cn1cnnc1-c1cnn(C)c1-c1cc(NS(C)(=O)=O)nc(N2Cc3c(cccc3C(F)(F)F)C2=O)c1` [AAW-2, N-(4-(1-Methyl-4-(4-methyl-4H-1,2,4-triazol-3-yl)-1H-pyrazol-5-yl)-6-(1-oxo-4-(trifluoromethyl)isoindolin-2-yl)pyridin-2-yl)methanesulfonamide], the IC50 lay in the range of 1 to 10 µM.

As for `C[C@H]1CCCN(Cc2cc3c(c(C(F)(F)F)c2)CN(c2cccc(-c4ccccc4-c4nncn4C)c2)C3=O)C1` [Example R-2, (S)-2-(2′-(4-Methyl-4H-1,2,4-triazol-3-yl)-[1,1′-biphenyl]-3-yl)-6-((3-methylpiperidin-1-yl)methyl)-4-(trifluoromethyl)isoindolin-1-one], the IC50 is at most 0.2 µM.

As for `CCNc1cc(-c2c(-c3nncn3C)cnn2C)cc(C(=O)O)n1` [ABQ-1, 6-(Ethylamino)-4-(1-methyl-4-(4-methyl-4H-1,2,4-triazol-3-yl)-1H-pyrazol-5-yl)picolinic acid], the IC50 lay within 10 to 50 µM.

For the compound `Cn1cnnc1-c1ccccc1-c1cccc(NC(=O)c2cc(=O)[nH]c(C3CC3)n2)c1` [AAP-1, 2-Cyclopropyl-N-(2′-(4-methyl-4H-1,2,4-triazol-3-yl)-[1,1′-biphenyl]-3-yl)-6-oxo-1,6-dihydropyrimidine-4-carboxamide], the IC50 is 1 to 10 µM.

For the compound `CC(C)Nc1cc(-c2c(-c3nncn3C)cnn2C)cc(N2Cc3c(cccc3C(F)(F)F)C2=O)n1` [ABI-1, 2-(6-(Isopropylamino)-4-(1-methyl-4-(4-methyl-4H-1,2,4-triazol-3-yl)-1H-pyrazol-5-yl)pyridin-2-yl)-4-(trifluoromethyl)isoindolin-1-one], the IC50 was at most 0.2 µM.

For `CCNc1cc(-c2ccccc2-c2nncn2C)cc(N2Cc3c(cc(CN[C@H]4CCC[C@@H]4O)cc3C(F)(F)F)C2=O)n1` [AP-1, 2-(6-(Ethylamino)-4-(2-(4-methyl-4H-1,2,4-triazol-3-yl)phenyl)pyridin-2-yl)-6-((((1S,2S)-2-hydroxycyclopentyl)amino)methyl)-4-(trifluoromethyl)isoindolin-1-one], the IC50 is at most 0.2 µM.

As for `Cn1cnnc1-c1ccccc1-c1cc(C2CC2)nc(N2Cc3c(cc(CN4CCC5(CC5)C4)cc3C(F)(F)F)C2=O)c1` [ACL-1, 6-((5-Azaspiro [2.4]heptan-5-yl)methyl)-2-(6-cyclopropyl-4-(2-(4-methyl-4H-1,2,4-triazol-3-yl)phenyl)pyridin-2-yl)-4-(trifluoromethyl)isoindolin-1-one], the IC50 was at most 0.2 µM.

`CCNc1cc(-c2c(-c3nncn3C)cnn2C)cc(N2Cc3c(cc(CN4CCC[C@H](C)C4)cc3C(F)(F)F)C2=O)n1` [ACF-1, (S)-2-(6-(Ethylamino)-4-(1-methyl-4-(4-methyl-4H-1,2,4-triazol-3-yl)-1H-pyrazol-5-yl)pyridin-2-yl)-6-((3-methylpiperidin-1-yl)methyl)-4-(trifluoromethyl)isoindolin-1-one]: the IC50 was at most 0.2 µM.

For `CCNc1cc(-c2c(-c3nncn3C)cnn2C)cc(N2Cc3c(cc(O)cc3C(F)(F)F)C2=O)n1` [ACQ-7, 2-(6-(Ethylamino)-4-(1-methyl-4-(4-methyl-4H-1,2,4-triazol-3-yl)-1H-pyrazol-5-yl)pyridin-2-yl)-6-hydroxy-4-(trifluoromethyl)isoindolin-1-one], the IC50 was at most 0.2 µM.

`Cn1cnnc1-c1ccccc1-c1cccc(N2Cc3c(cc(CN4CCC5(CC5)C4)cc3C(F)(F)F)C2=O)c1` [AAQ-1, 6-((5-Azaspiro [2.4]heptan-5-yl)methyl)-2-(2′-(4-methyl-4H-1,2,4-triazol-3-yl)-[1,1′-biphenyl]-3-yl)-4-(trifluoromethyl)isoindolin-1-one]: the IC50 was at most 0.2 µM.

`Cn1cnnc1-c1nccn1-c1cccc(N2Cc3c(cccc3C(F)(F)F)C2=O)c1` [AAA-8, 2-[3-[2-(4-Methyl-1,2,4-triazol-3-yl)imidazol-1-yl]phenyl]-4-(trifluoromethyl)-3H-isoindol-1-one]: the IC50 fell in the range of 10 to 50 µM.

In the case of `Cn1cnnc1-c1ccccc1-c1cccc(NC(=O)c2cc(OCCN3CCCC3)nc(C3CC3)n2)c1` [ABK-7, 2-Cyclopropyl-N-(2′-(4-methyl-4H-1,2,4-triazol-3-yl)-[1,1′-biphenyl]-3-yl)-6-(2-(pyrrolidin-1-yl)ethoxy)pyrimidine-4-carboxamide], the IC50 was in the range of 0.2 to 1 µM.

As to `Cn1cnnc1-c1ccccc1-c1cc(N2Cc3c(cccc3C(F)(F)F)C2=O)cc(C(F)(F)F)c1` [Example K-3, 2-(2′-(4-Methyl-4H-1,2,4-triazol-3-yl)-5-(trifluoromethyl)-[1,1′-biphenyl]-3-yl)-4-(trifluoromethyl)isoindolin-1-one], the IC50 was 1 to 10 µM.

Turning to `CCOc1cc(-c2ccccc2-c2nncn2C)cc(N2Cc3c(cccc3C(F)(F)F)C2=O)c1` [AAR-5, 2-(5-Ethoxy-2′-(4-methyl-4H-1,2,4-triazol-3-yl)-[1,1′-biphenyl]-3-yl)-4-(trifluoromethyl) isoindolin-1-one], the IC50 lay within 0.2 to 1 µM.

In the case of `Cn1cnnc1-c1cnn(C)c1-c1cc(Cl)nc(N2Cc3c(cc(CN4CCC5(CC5)C4)cc3C(F)(F)F)C2=O)c1` [ABD-1, 6-((5-Azaspiro [2.4]heptan-5-yl)methyl)-2-(6-chloro-4-(1-methyl-4-(4-methyl-4H-1,2,4-triazol-3-yl)-1H-pyrazol-5-yl)pyridin-2-yl)-4-(trifluoromethyl)isoindolin-1-one], the IC50 lay in the range of 0.2 to 1 µM.

Take `CCNc1cc(-c2ccccc2-c2nncn2C)cc(N2Cc3c(cc(CN4CC[C@H](F)C4)cc3C(F)(F)F)C2=O)n1` [AJ-1, (S)-2-(6-(Ethylamino)-4-(2-(4-methyl-4H-1,2,4-triazol-3-yl)phenyl)pyridin-2-yl)-6-((3-fluoropyrrolidin-1-yl)methyl)-4-(trifluoromethyl)isoindolin-1-one]: the IC50 was at most 0.2 µM.

(Values after patent US12325697B2 (Nimbus Clio, Inc., priority 2021, dated 2025).)
